The text below walks through data of patent US7030236B2, “Antisense oligonucleotides tarageting folate receptor alpha, and the use thereof” (priority 2001, dated 2006).

Changes are numbered by the printed parent chain.

Holding throughout (format): cell-based, human
For one series, the system named is αhFR mRNA. As to the kind of experiment: Northern analysis of αhFR mRNA in KB cells. To be noted: oligonucleotide treatment over night. From the text:
Expression of αhFR is known to be elevated in cancer. In particular, increased αhFR expression is found in 90% of human epithelial ovarian malignancies and is associated with a poor disease prognosis. It is possible that over expression of αhFR confers a growth survival advantage in ovarian cancer cells, since folates are involved in numerous cellular processes, including DNA and RNA synthesis.
Northern Analysis. KB cells were maintained over night in growth media containing sense or antisense unmodified DNA oligonucleotides at the indicated concentrations. Total RNA was isolated (Promega, Madison, Wis.) and samples containing 20 μg of total cellular RNA were resolved on a 1% agarose/0.66M formaldehyde/0.023 3-(N-morpholino) propansulfonic acid gel. The RNA's were transferred to a nitrocellulose membrane (Schleicher and Schuell, Portran, Keene, N.H.) and then hybridized to a random ^32P-labeled αhFR cDNA probe as described previously.

Series [1] relates to KB cells. As to the kind of experiment: KB cell viability after oligonucleotide treatment, total protein content by Bradford assay. To be noted: compared to S-6 control. On the procedure:
The effect of AS-6 on the viability of cultured KB cells was evaluated (FIG. 3). […] The decrease in cell viability upon AS-6 treatment correlates well with the decrease in newly synthesized αhFR expression, as determined in FIG. 2B.
Cell Viability Experiments. Stable transfectants of pRc/CMV αhFR-S or pRc/CMV ahFR-AS constructs were achieved by the calcium phosphate method using the Stratagene Eukaryotic Transfection kit (La Jolla, Calif.) and selected in 500 μg/ml G418. Phosphorothioated-modified αhFR sense (S-6) and antisense (AS-6) DNA oligonucleotides were transfected into 6×10^4 KB cells by incubating oligonucleotides in 1 ml of serum-free media for 6 hrs. Transfections were terminated by the addition of 1 ml of serum-containing low-folate media. Total protein content was assessed 36 hours later by Bradford assay (Biorad, Hercules, Calif.).

The test system of the next series is T47D. As to the kind of experiment: XTT cell survival after Tf-liposome-mediated oligonucleotide transfection, T47D. On the procedure: (§1) FIGS. 10A–10B: FIGS. 10A and 10B depict the effect of various concentrations of αhFR AS-6 oligonucleotide (A) and S-6 oligonucleotide (B) on survival of cultured human breast cancer cells. End-modified phosphorothioated oligonucleotides were transfected into 2×10^4 cells at the indicated concentrations for 6 hrs using a Tf-liposome-mediated delivery complex. Cell survival was assessed 48 hrs after transfection by XTT assay.
(§2) To determine the effect of αhFR antisense oligonucleotide, on the survival of cultured breast cancer cells, we transfected AS6 oligonucleotide and S6 oligonucleotide at various concentrations via the Tf-liposome-mediated gene delivery system.
(In general: Tetrazolium assays rely on reduction of a dye to a coloured formazan, in cell work by metabolically active cells.)

The next series relates to MDA-MB-231. As to the kind of experiment: XTT cell survival after Tf-liposome-mediated oligonucleotide transfection, MDA-MB-231. To be noted: MDA-MB-231, end-modified phosphorothioated oligo, 6 hrs transfection, XTT at 48 hrs. As for the experimental part:
as §1, §2

In the next series the test system is MDA-MB-435. As to the kind of experiment: XTT cell survival after Tf-liposome-mediated oligonucleotide transfection, MDA-MB-435. As to conditions: MDA-MB-435, end-modified phosphorothioated oligo, 6 hrs transfection, XTT at 48 hrs. On the procedure: as §1, §2
The next series relates to MDA-MB-435 cells. As to the kind of experiment: Chemosensitization to doxorubicin, XTT assay. To be noted: 500 nM oligo, doxorubicin 24 hrs after transfection, XTT after 72 hrs. On the procedure: FIG. 11: FIG. 11 depicts chemosensitization of MDA-MB-435 breast cancer cells after combination treatment with αhFR AS6 oligonucleotide and doxorubicin. MDA-MB-435 cells were plated at 2×10^4 cells/well and transfected with 500 nM of αhFR AS6 or S6 end-modified phosphorothioated oligonucleotide. After 24 hrs, cells were incubated with media containing doxorubicin at the indicated concentrations. Cell survival was determined by XTT assay after 72 hrs.
To determine whether or not αhFR antisense oligonucleotide sensitizes breast cancer cells to chemotherapy, the following experiment was carried out. 500 nM of AS6 oligonucleotide or S6 oligonucleotide was transfected into MDA-MB-435 cells and treated with varying concentrations of doxorubicin, twenty-four hours after transfection. Cell survival was determined after 72 hrs by XTT assay and the degree of sensitization was calculating by determining the ratio of IC50 values of the combined treatment relative to that of the S6 oligonucleotide and untreated controls. In FIG. 11, chemosensitization of MDA-MD-435 cells by AS6 oligonucleotide was about 5 fold (IC50 S6/IC50 AS6=5) relative to the sense control and about 10 fold (IC50 UT/IC50 AS6=10) relative to the untreated control.

Series [2] relates to KB cells. As to the kind of experiment: KB cell viability after cytofectin transfection of ribozymes, Cell Counting Kit-8 colorimetric assay. On the procedure:
The viability of KB cells transfected with wild type or control mutant and sense ribozymes was assessed by colormetric assay. […] (FIG. 6A). […] Approximately 75% of the initial transfected ribozyme amounts disappeared after 1 hour. The quick half-life of ribozyme integrity may explain the unexpected lowered effect of αhFR ribozymes versus antisense oligonucleotides on KB cell survival.
In vitro synthesized wild type, mutant or sense-oriented ribozymes were transfected into 6×10^4 KB cells with cytofectin (Glen Research, Rockville, Md.), according to manufacturers instruction. Transfections were terminated by replacing media with 1 ml of serum-containing low-folate media. Cell viability was quantitated after 36 hours by the Cell Counting Kit-8 (Dojindo, Gaithersburg, Md.). For ribozyme decay analysis, in vitro synthesized ribozymes were radiolabeled with [α-^32P]-rCTP and rGTP using the riboprobe kit (Promega, Madison, Wis.). Radiolabeld ribozymes were transfected by the cytofectin method as described above. Total RNA was extracted at the indicated time points using the RNeasy mini kit (Quiagen, Valencia, Calif.), fractionated on a 6% sequencing gel and visualized by autoradiography. Amounts of intact internalized ^32P-labeled ribozyme were determined using the NIH image software.

Take “AS-1: antisense 21-mer DNA TGTTGTCATCCGCTGAGCCAT, αhFR open reading frame 21–1, SEQ ID NO. 2 (antisense TGTTGTCATCCGCTGAGCCAT; unmodified DNA)”: the “αhFR mRNA by Northern analysis” value with αhFR mRNA is reported as “remained unaffected”.

Consider “AS-2: antisense 21-mer DNA AGGAGGTCAGCTGAGCAGCCA, αhFR open reading frame 780–760, SEQ ID NO. 3 (antisense AGGAGGTCAGCTGAGCAGCCA; unmodified DNA)”, for which the “αhFR mRNA by Northern analysis” value in the series with αhFR mRNA is “remained unaffected”.

The term IC50 denotes the concentration needed to halve the response being measured. A low value points to greater potency in that assay. Consider “AS-6: antisense 21-mer DNA GCTCTTGCAGGTGTAGGAGGT, αhFR ORF 462–442, SEQ ID NO. 4; unmodified or phosphorothioated (antisense GCTCTTGCAGGTGTAGGAGGT; DNA, backbone and methylation of C not given here; phosphorothioate modified, described as end-modified)”, for which the “αhFR mRNA by Northern analysis” value with αhFR mRNA is recorded as “remained unaffected”. Moreover, the “decrease in overall protein content” value worked out at 20% in the series with KB cells [1] (10 μM phosphorothioate-modified oligo) and 60% in the series on KB cells [1] (50 μM phosphorothioate-modified oligo). Moreover, the IC50 in the series on T47D (T47D, end-modified phosphorothioated oligo, 6 hrs transfection, XTT at 48 hrs) is 633 nM; with MDA-MB-231, 600 nM; in the series with MDA-MB-435, 416 nM. The “chemosensitization to doxorubicin, IC50 S6/IC50 AS6” value in the series on MDA-MB-435 cells (relative to sense control) is reported as “about 5 fold”. In addition, in the series on MDA-MB-435 cells (relative to untreated control), the “chemosensitization to doxorubicin, IC50 UT/IC50 AS6” value was “about 10 fold”.

On to “S6: sense control 21-mer ACCTCCTACACCTGCAAGAGC, 442–462 (sense ACCTCCTACACCTGCAAGAGC; DNA, backbone and methylation of C not given here; S-6 used both unmodified and phosphorothioate-modified, form not tied to measurement, further chemistry not fully specified) [reference compound]”, for which the “effect on survival of model breast cancer cell lines” value with T47D (stated for the breast cancer cell lines together (T47D, MDA-MB-231, MDA-MB-435), versus AS6) is on record as “significantly less effect”.

B1: Rz 187/210 WT: wild type hammerhead ribozyme targeted to 5′ region of αhFR open reading frame; encoding DNA in Table II (nucleic acid)
DNA 1: CCCGTCGACAATGCCTGCTGTTTCGTCCTCACGGACTCATCAGCTACCAACACAAGCTTCCC
DNA 2: GGGCAGCTGTTACGGACGACAAAGCAGGAGTGCCTGAGTAGTCGATGGTTGTGTTCGAAGGG
modifications: target site or template, no part of the molecule; chemistry not given here; one strand is listed 3' to 5'
For B1, the “decrease in cell survival” value in the series with KB cells [2] (KB cells, compared to control mutant and sense ribozymes) is “approximately 60%”.

B2: Rz 187/210 MUT: mutant control ribozyme, G in the catalytic structure changed to A (nucleic acid)
DNA 1: B1 DNA 1 with C36T
DNA 2: B1 DNA 2 with G36A
modifications: target site or template, no part of the molecule; chemistry not given here; one strand is listed 3' to 5'
notes: mutant control ribozyme, G in the catalytic structure changed to A
For the molecule B2, the “effect on cell survival” value with KB cells [2] (KB cells transfected with ribozyme) is “little, if any effect”.
